Experimental data reported in patent publication US20240300958A1, “COMPOUNDS AND THE USES AND PHARMACEUTICAL COMPOSITIONS THEREOF” (BEIJING YOUZHUJU NETWORK TECHNOLOGY CO. LTD., priority 2023, published 2024).

biological target: DDR1 (Homo sapiens (Human), UniProt Q08345); assay: DDR1 kinase inhibition assay (FAM-labeled peptide), IC50; format: biochemical
Protocol: 1× kinase base buffer (50 mM HEPES, pH 7.5, 0.0015% Brij-35) and a stop buffer (100 mM HEPES, pH 7.5, 0.015% Brij-35, 0.2% Coating Reagent #3, 50 mM EDTA) were prepared for testing kinases.
The compounds were diluted with 100% DMSO to 100 times the highest final inhibitor concentration required in the reaction. 100 μl of dilution of the compound was transferred to wells of a 96-well plate. For example, 100000 nM solution of the compound in DMSO was prepared in this step in case that an inhibitor concentration of 1000 nM is required. 100 μl of 100% DMSO was added to two empty wells of a 96-well plate for no compound control and no enzyme control. This plate was labeled as the source plate. A new 96-well plate with 5 μl of compound transferred from the source plate is used as an intermediate plate. 95 μl of 1× kinase buffer was added to each well of the intermediate plate. The compounds in the intermediate plate was mixed on a shaker for 10 minutes.
5 μl of sample in each well from the 96-well intermediate plate was transferred to the 384-well plate in duplicate. For example, well A1 of the 96-well plate was transferred to wells A2 and A1 of the 384-well plate, and well A2 of the 96-well plate was transferred to wells A3 and A4 of the 384-well plate, and so forth. 2.5× enzyme solution was prepared: 1× kinase basal buffer with added kinase. 2.5× peptide solution was prepared: 1× kinase basal buffer with added FAM-labeled peptide and ATP. To an assay plate already contained 5 μl of 10% dimethyl sulfoxide compound, 2.5× enzyme solution was transferred, and each well of the 384-well assay plate was added 10 μl of 2.5× enzyme solution. After incubation at room temperature for 10 minutes, 2.5× peptide solution was transferred to the assay plate. Each well of the 384-well assay plate was added 10 μl of 2.5× peptide solution. Kinase reaction and termination: incubation at 28° C. for a specified period followed by the addition of 25 μl stop buffer to stop the reaction. The data was read and collected.

DDR1, sequence (Q08345 other isoform, or with tags, fused parts or gaps isoform Q08345-2): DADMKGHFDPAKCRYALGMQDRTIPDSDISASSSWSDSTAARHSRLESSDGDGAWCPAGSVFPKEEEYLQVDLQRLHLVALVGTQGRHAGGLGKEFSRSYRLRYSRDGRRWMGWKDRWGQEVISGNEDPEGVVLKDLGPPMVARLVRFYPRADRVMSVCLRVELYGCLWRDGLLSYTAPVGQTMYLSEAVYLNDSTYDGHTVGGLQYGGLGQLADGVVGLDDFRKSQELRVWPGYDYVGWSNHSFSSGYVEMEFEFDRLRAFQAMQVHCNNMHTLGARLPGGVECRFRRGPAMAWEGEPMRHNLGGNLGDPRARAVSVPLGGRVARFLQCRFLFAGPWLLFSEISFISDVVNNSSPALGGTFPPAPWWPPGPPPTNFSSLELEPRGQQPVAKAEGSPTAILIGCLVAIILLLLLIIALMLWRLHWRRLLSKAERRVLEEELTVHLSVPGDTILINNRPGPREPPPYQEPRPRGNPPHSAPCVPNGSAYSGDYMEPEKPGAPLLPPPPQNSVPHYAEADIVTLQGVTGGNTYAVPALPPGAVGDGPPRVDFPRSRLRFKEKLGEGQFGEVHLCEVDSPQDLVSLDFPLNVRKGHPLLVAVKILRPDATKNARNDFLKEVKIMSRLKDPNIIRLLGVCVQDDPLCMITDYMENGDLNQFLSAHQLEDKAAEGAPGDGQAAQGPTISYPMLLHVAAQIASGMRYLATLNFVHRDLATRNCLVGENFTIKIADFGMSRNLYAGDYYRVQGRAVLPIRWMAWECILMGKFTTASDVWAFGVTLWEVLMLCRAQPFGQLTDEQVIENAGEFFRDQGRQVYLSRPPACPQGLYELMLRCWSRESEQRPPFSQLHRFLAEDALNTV

Structure (SMILES) | IC50 [nM]
CCc1ccc(C(=O)Nc2ccccn2)cc1C#Cc1cnc2cc(C3=CCCCC3)cnn12 [Compound C9] | < 500
O=C(N[C@H]1CC[C@H](O)CC1)c1ccc2ccc(-c3ccc(NC4CCCCC4)cc3)cc2n1 [DC1, reference compound] | > 1000
Cc1ccc(C(=O)Nc2ccccn2)cc1C#Cc1cnc2cc(C3CC=CCC3)cnn12 (stereo not drawn) [Compound C4] | < 500
Cc1ccc(C(=O)Nc2ccccn2)cc1C#Cc1cnc2cc(C3CCCC3)cnn12 [Compound C5] | < 500
CC(C)c1ccc(C(=O)Nc2ccccn2)cc1C#Cc1cnc2cc(C3=CCCCC3)cnn12 [Compound C10] | < 500
Cc1ccc(C(=O)Nc2ccccn2)cc1-c1cccc(-c2cnc3cc(C4=CCCCC4)cnn23)c1 [Compound C11] | < 500
Cc1cc(-c2cc(C(=O)Nc3ccccn3)ccc2C)cc(-c2cnc3cc(C4=CCCCC4)cnn23)c1 [Compound C12] | < 500
Cc1ccc(C(=O)Nc2ccccn2)cc1C#Cc1cnc2cc(C3CC=CC3)cnn12 [Compound C8] | < 500

Now from value to compound:

IC50 [nM] | Structure (SMILES)
< 500 | Cc1ccc(C(=O)Nc2ccccn2)cc1C#Cc1cnc2cc(C3=CCCC3)cnn12 [Compound C6]
< 500 | Cc1ccc(C(=O)Nc2ccccn2)cc1C#Cc1cnc2cc(C3C=CCC3)cnn12 (stereo not drawn) [Compound C7]
< 500 | Cc1ccc(C(=O)Nc2ccccn2)cc1C#Cc1cnc2cc(C3CCCCC3)cnn12 [Compound C2]
< 500 | Cc1ccc(C(=O)Nc2ccccn2)cc1C#Cc1cnc2cc(C3C=CCCC3)cnn12 (stereo not drawn) [Compound C3]
